Tests used:
Type in all cases: cell-based, mouse
Dnmt3a^−/− HSCs = test: NF-κB activation in vitro (NF-κB^GFP reporter, immunoblot); conditions: NF-κB^GFP HSCs compared to WT
Description: (§1) Because intestinal epithelial injury and dysbiosis mediate the expansion of Dnmt3a-mutant pre-leukemic cells was observed, Applicant evaluated whether this occurs because of ADP-heptose-mediated ALPK1 signaling. Indeed, Dnmt3a^−/− HSCs were exquisitely sensitive to ADP-heptose stimulation in vitro. […] Activation of NF-κB in Dnmt3a^−/− HSPCs occurred following treatment with ADP-heptose (FIG. 3L). […] Constitutive combined activation of NF-κB and MAPK, such as during chronic inflammation with IL-1β, promotes differentiation of HSCs at the expense of self-renewal, leading to depletion of the HSC population.
(§2) Dnmt3a^f/f and MxCre^+ (obtained from H. Lee Grimes Laboratory, CCHMC)^33, Alpk1^−/− (11 bp deletion in exon 3, C57BL/6N-Alpk1^em1Fsha/J, Cat no. 032561, Jackson Laboratory), Tifa^−/− (gift from Jun-Ichiro Inoue, University of Tokyo, Japan), and UBC-GFP (C57BL/6-Tg(UBC-GFP)30Scha/J, Cat no. 004353, Jackson Laboratory) mice were maintained on CD45.2+C57BL/6 background. NF-kB^GFP reporter mice were generously provided by C. Jobin. Throughout the study, CD45.1+B6.SJL-Ptprc^a (BoyJ) mice were used as recipients for BM transplantation experiments. […] Mice were bred, housed and monitored daily by laboratory staff and veterinary personnel for health and activity. […]
(§3) Protein concentration was evaluated by bicinchoninic acid (BCA) assay (Pierce, Cat #23225). […]

WT HSPCs = test: as above
Description: as §1, §2, §3

[1] = test system: MAPK signaling in Dnmt3a^−/− HSPCs; test: Immunoblot of MAPK signaling
Description: (A) ALPK1 and TIFA mRNA expression in Dnmt3a^WT and Dnmt3a^KO HSC from the publicly available dataset GSE98191. (B) Immunoblot analysis of HSPCs from WT, Alpk1^KO, Dnmt3a^KO, and Dnmt3a^KO; Alpk1^KO mice stimulated with indicated concentrations of ADP-heptose for 30 minutes to examine MAPK signaling.
Protein concentration was evaluated by bicinchoninic acid (BCA) assay (Pierce, Cat #23225). SDS sample buffer was added to the lysates and the proteins were separated by SDS-polyacrylamide gel electrophoresis, transferred to PVDF or nitrocellulose membranes (BIO-RAD, Cat #1620112), and analyzed by immunoblotting. […] Membranes were visualized using ECL Western Blotting Substrate (Pierce, #32106) or SuperSignal West Femto Substrate (Thermo Scientific, #34096), imaged on a BIO-RAD ChemiDoc Touch Imaging system and analyzed with Image lab software 6.0.1 (Biorad) or Image J (22930834).

With `Nc1ncnc2c1ncn2[C@@H]1O[C@H](COP(=O)(O)OP(=O)(O)O[C@@H]2O[C@H]([C@H](O)CO)[C@@H](O)[C@H](O)[C@@H]2O)[C@@H](O)[C@H]1O` [ADP-heptose, ADP-D-glycero-β-D-manno-heptose] the “NF-κB activation (NF-κB^GFP reporter)” value (Dnmt3a^−/− HSCs) was “robust and sustained NF-κB activation”, the “concentration of ADP-heptose required to induce NF-κB activation” value (WT HSPCs) was greater than 1 µM and the MAPK signaling [1] was “did not result in MAPK signaling”.

Source: patent US20250314644A1, “METHODS COMPRISING DETECTION OF ADP-HEPTOSE” (CHILDREN'S HOSPITAL MEDICAL CENTER, priority 2023, published 2025)
